# Data taken from US10752631B2, “Heterocyclic compounds as FGFR inhibitors” (GUANGZHOU INNOCARE PHARMA TECH CO., LTD., priority 2016, dated 2020).
# Assays:
# [1] = molecular target: human recombinant FGFR2 catalytic structural domain protein (amino acids 400-821) (Homo sapiens (Human), UniProt P21802); test: FGFR2 activity inhibition test (HTRF kinase assay); format: biochemical; details: 50 μM ATP
# [2] = molecular target: human recombinant FGFR3 catalytic structural domain protein (amino acids 399-806) (Homo sapiens (Human), UniProt P22607); test: FGFR3 activity inhibition test (HTRF kinase assay); format: biochemical; details: 90 μM ATP
# Chain of human recombinant FGFR3 catalytic structural domain protein (amino acids 399-806) (P22607 399-806): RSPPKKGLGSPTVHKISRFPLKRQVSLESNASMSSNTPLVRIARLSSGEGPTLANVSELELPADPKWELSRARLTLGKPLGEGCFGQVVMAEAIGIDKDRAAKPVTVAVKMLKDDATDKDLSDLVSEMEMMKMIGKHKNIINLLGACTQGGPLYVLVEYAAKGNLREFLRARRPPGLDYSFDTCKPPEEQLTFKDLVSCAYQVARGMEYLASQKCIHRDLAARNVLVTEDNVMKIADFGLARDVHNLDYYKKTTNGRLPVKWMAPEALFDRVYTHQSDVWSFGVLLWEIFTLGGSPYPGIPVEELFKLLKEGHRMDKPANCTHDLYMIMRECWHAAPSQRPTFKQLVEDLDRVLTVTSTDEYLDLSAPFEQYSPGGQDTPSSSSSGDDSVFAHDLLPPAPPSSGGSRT
# Chain of human recombinant FGFR2 catalytic structural domain protein (amino acids 400-821) (P21802 400-821): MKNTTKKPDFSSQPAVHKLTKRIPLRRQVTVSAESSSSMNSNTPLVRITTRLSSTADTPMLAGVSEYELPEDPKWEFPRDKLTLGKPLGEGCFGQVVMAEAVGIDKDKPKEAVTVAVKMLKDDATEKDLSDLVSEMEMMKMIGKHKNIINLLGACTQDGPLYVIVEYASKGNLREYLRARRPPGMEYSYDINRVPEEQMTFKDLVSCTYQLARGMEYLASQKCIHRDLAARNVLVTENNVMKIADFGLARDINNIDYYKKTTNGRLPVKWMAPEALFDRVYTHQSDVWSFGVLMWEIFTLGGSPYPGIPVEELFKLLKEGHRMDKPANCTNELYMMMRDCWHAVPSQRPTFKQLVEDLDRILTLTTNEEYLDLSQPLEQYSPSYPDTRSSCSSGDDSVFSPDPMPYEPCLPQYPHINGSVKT
IC50 [1] [nM],IC50 [2] [nM],Compound
50 to 500,50 to 500,"C/C=C/C(=O)N1CC(c2nc(C#Cc3cc(OC)cc(OC)c3)c3c(N)nccn23)C1 [Compound 11, (E)-1-((3,5-Dimethoxyphenyl)ethynyl)-3-(1-but-2-enoylazacyclobutan-3-yl)imidazo[1,5-a]pyrazin-8-amine]"
< 50,< 50,"CC#CC(=O)N1CC[C@@H](c2nc(C#Cc3cc(OC)cc(OC)c3)c3c(N)nccn23)C1 [Compound 5, (R)-1-((3,5-Dimethoxyphenyl)ethynyl)-3-(1-butan-2-ynoylpyrrolidin-3-yl)imidazo[1,5-a]pyrazin-8-amine]"
< 50,50 to 500,"CC#CC(=O)N1CCC(c2nc(C#Cc3cc(OC)cc(OC)c3)c3c(N)nccn23)C1 (centres unmarked) [Compound 9, 1-((3,5-Dimethoxyphenyl)ethynyl)-3-(1-butan-2-ynoylpyrolidin-3-yl)imidazo[1,5-a]pyrazin-8-amine]"
< 50,50 to 500,"C#CC(=O)N1CC[C@@H](c2nc(C#Cc3cc(OC)cc(OC)c3)c3c(N)nccn23)C1 (stereo in doubt) [Compound 8, 1-((3,5-Dimethoxyphenyl)ethynyl)-3-(1-propynoylpyrrolidin-3-yl)imidazo[1,5-a]pyrazin-8-amine]"
< 50,< 50,COc1cc(C#Cc2nc(C3CCN(C(=O)/C=C/CN(C)C)C3)n3ccnc(N)c23)cc(OC)c1 (centres unmarked) [Compound 10]
< 50,< 50,"C/C=C/C(=O)N1CC[C@@H](c2nc(C#Cc3cc(OC)cc(OC)c3)c3c(N)nccn23)C1 [Compound 7, (E)-1-((3,5-Dimethoxyphenyl)ethynyl)-3-(1-butan-2-enoylpyrrolidin-3-yl)imidazo[1,5-a]pyrazin-8-amine]"
50 to 500,50 to 500,"CC#CC(=O)N1CC(c2nc(C#Cc3cc(OC)cc(OC)c3)c3c(N)nccn23)C1 [Compound 12, 1-((3,5-Dimethoxyphenyl)ethynyl)-3-(1-but-2-ynoylazacyclobutan-3-yl)imidazo[1,5-a]pyrazin-8-amine]"
